Experimental findings from article PMC7358528, “Tuning Scorpion Toxin Selectivity: Switching From KV1.1 to KV1.3” (Frontiers in Pharmacology, 2020) are described below.

Read-outs that look alike come from different tables or passages of the source. Where a SMILES comes first, the peptide text is derived from it. Bridges are numbered along the chain shown (N, C = ends).

The target in one assay is T1, KV1.1 (Rattus norvegicus, UniProt P10499).
T1 construct: expressed in transfected cells; host or cells: Xenopus laevis oocytes injected with cRNA
Nature of the assay: Two-electrode voltage clamp on KV1.1 expressed in Xenopus oocytes. The format is cell-based. The conditions noted are these: for IC50: rKV1.1, Xenopus oocytes, two-electrode voltage clamp, ND96 pH 7.4, 18–22°C, 0 mV from −90 mV. As to the method:
(§1) Ion Channel Expression in Xenopus Oocytes
(§2) The major pipeline of ion channel expression in oocytes was described previously ([Peigneur et al., 2011]). Briefly, for the expression of KV genes (rat (r)KV1.1, rKV1.2, human (h)KV1.3, rKV1.4, rKV1.5, and rKV1.6) in Xenopus laevis oocytes, linearized plasmids containing the respective gene sequences were transcribed using the T7 mMESSAGE-mMACHINE transcription kit (Ambion). 50 nl of cRNA solution (1 ng/nl) were injected into oocytes using a micro-injector (Drummond Scientific). The oocytes were incubated in ND96 solution: 96 mM NaCl, 2 mM KCl, 1.8 mM CaCl2, 2 mM MgCl2 and 5 mM HEPES, pH 7.4, supplemented with 50 mg/l gentamycin sulfate.
(§3) Electrophysiological Recordings
(§4) Two-electrode voltage-clamp recordings were performed at room temperature (18–22°C) using a Geneclamp 500 amplifier (Molecular Devices) controlled by a pClamp data acquisition system (Axon Instruments) as described ([Peigneur et al., 2011]). Bath solution composition was ND96. KV currents were evoked by 250-ms depolarization to 0 mV from a holding potential of −90 mV, followed by 250-ms pulses to −50 mV. For current–voltage relationship studies, currents were evoked by 10-mV depolarization steps. Concentration–response curves were constructed, in which the percentage of current inhibition was plotted as a function of toxin concentration. Data were fitted with the Hill equation: y = 100/[1 + (IC50/[toxin])^h], where y is the amplitude of the toxin-induced effect, [toxin] is toxin concentration, and h is the Hill coefficient. Comparison of two sample means was performed using a paired Student’s t-test (p-value of 0.05 was used as a threshold of significance). All data were obtained in at least three independent experiments (n ≥ 3) and are presented as mean ± standard error of the mean.
For orientation: In two-electrode clamp one electrode senses voltage and the other passes current.

Another assay concerns the target T2, KV1.2 (Rattus norvegicus, UniProt P63142).
T2 construct: expressed in transfected cells; host or cells: Xenopus laevis oocytes injected with cRNA
Nature of the assay: Two-electrode voltage clamp on KV1.2 expressed in Xenopus oocytes. Format: cell-based. Here is the method:
as §1, §2, §3, §4

The target in another assay is T3, KV1.6 (Rattus norvegicus, UniProt P17659).
T3 construct: expressed in transfected cells; host or cells: Xenopus laevis oocytes injected with cRNA
The assay can be described thus: Two-electrode voltage clamp on KV1.6 expressed in Xenopus oocytes. The format is cell-based. As to conditions: mean ± SEM, n ≥ 3. Here is the method:
as §1, §2, §3
(§5) Two-electrode voltage-clamp recordings were performed at room temperature (18–22°C) using a Geneclamp 500 amplifier (Molecular Devices) controlled by a pClamp data acquisition system (Axon Instruments) as described ([Peigneur et al., 2011]). Bath solution composition was ND96. KV currents were evoked by 250-ms depolarization to 0 mV from a holding potential of −90 mV, followed by 250-ms pulses to −50 mV. For current–voltage relationship studies, currents were evoked by 10-mV depolarization steps. Concentration–response curves were constructed, in which the percentage of current inhibition was plotted as a function of toxin concentration. […]

For assay [1], the target named is T4, KV1.3 (Homo sapiens, UniProt P22001). The assay can be described thus: Two-electrode voltage clamp on KV1.3 expressed in Xenopus oocytes. The format is cell-based. Further details: expressed in transfected cells; host or cells: Xenopus laevis oocytes injected with cRNA. The conditions noted are these: for inhibition at 0.01 µM: 10 nM, KV1.3, Xenopus oocytes, read-out: inhibition of potassium current. Here is the method: as §1, §2, §3, §4

Another assay addresses T5, KV1.4 (Rattus norvegicus, UniProt P15385).
T5 construct: expressed in transfected cells; host or cells: Xenopus laevis oocytes injected with cRNA
Nature of the assay: Two-electrode voltage clamp on KV1.4 expressed in Xenopus oocytes. The format is cell-based. As to conditions: rKV1.4, Xenopus oocytes, up to 1 µM. As to the method: as §1, §2, §3, §5

Another assay has as its target T6, KV1.5 (Rattus norvegicus, UniProt P19024).
T6 construct: expressed in transfected cells; host or cells: Xenopus laevis oocytes injected with cRNA
The assay can be described thus: Two-electrode voltage clamp on KV1.5 expressed in Xenopus oocytes. The conditions noted are these: rKV1.5, Xenopus oocytes, up to 1 µM. The format is cell-based. As to the method:
as §1, §2, §3, §5

Assay [2] has as its target T4, KV1.3.
In assay [3] the target is rat KV1.1 (rat) (UniProt P10499).
Assay [4] deals with rat KV1.2 (rat) (UniProt P63142).
The target in assay [5] is rat KV1.6 (rat) (UniProt P17659).
For assay [6], the target named is rat KV1.1 (rat) (UniProt P10499). This is another data set of the same source.
For assay [7] the target is unchanged. This is another data set of the same source.
Assay [8] addresses T4, KV1.3. The source holds these as a separate data set.
For assay [9], the target named is rat KV1.2 (rat) (UniProt P63142). The source holds these as a separate data set.
Assay [10] has as its target rat KV1.6 (rat) (UniProt P17659). The source holds these as a separate data set.

As usually defined, the Hill coefficient is the slope factor of the fitted curve. The term inhibition denotes how much of the control response was suppressed. A word on the IC50: it is the concentration that inhibits the measured activity by half. High values mean a need for much substance, low ones inhibition by little substance.

rat KV1.1 (rat), sequence (P10499 whole entry): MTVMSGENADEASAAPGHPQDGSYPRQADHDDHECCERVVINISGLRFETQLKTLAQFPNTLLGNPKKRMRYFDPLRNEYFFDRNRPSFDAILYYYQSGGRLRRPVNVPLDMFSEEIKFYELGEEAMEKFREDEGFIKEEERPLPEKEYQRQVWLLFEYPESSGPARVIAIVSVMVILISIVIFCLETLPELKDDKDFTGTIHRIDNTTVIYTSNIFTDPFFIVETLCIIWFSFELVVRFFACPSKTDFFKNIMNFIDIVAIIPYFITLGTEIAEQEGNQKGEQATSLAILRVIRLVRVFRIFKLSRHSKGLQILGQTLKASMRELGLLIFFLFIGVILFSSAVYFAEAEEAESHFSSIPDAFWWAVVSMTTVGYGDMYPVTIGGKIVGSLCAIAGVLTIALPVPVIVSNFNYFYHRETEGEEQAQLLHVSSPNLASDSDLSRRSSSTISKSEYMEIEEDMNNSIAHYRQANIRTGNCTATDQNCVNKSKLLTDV
T1 sequence (P10499 whole entry): as above
T2 sequence (P63142 whole entry): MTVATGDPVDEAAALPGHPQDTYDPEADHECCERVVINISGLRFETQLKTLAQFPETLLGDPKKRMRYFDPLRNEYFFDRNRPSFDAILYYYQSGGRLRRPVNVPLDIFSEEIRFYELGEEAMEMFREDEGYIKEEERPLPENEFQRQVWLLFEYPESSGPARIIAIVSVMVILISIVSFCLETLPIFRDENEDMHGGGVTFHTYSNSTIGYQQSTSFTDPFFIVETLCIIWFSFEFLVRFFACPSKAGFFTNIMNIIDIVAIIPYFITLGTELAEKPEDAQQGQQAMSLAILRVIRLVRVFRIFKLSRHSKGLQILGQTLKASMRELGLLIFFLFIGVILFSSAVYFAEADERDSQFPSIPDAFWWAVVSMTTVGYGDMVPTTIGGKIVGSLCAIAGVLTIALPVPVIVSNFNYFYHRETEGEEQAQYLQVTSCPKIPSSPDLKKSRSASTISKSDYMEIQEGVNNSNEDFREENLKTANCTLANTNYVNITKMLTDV
T4 sequence (P22001 whole entry): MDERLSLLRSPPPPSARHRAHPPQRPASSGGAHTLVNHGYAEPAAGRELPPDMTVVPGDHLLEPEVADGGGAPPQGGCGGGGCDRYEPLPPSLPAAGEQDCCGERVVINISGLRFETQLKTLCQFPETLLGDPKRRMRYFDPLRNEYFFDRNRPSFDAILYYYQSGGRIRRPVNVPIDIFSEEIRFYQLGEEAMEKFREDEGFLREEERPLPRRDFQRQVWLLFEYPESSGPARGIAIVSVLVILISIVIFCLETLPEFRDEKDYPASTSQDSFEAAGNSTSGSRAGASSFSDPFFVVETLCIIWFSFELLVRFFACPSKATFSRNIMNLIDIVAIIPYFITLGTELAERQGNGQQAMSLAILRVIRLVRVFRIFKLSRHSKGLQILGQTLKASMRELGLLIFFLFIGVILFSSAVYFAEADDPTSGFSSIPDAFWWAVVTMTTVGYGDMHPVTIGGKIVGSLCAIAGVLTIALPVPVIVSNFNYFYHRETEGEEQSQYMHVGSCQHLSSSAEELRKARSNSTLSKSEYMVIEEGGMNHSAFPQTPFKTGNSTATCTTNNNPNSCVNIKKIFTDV
rat KV1.6 (rat), sequence (P17659 whole entry): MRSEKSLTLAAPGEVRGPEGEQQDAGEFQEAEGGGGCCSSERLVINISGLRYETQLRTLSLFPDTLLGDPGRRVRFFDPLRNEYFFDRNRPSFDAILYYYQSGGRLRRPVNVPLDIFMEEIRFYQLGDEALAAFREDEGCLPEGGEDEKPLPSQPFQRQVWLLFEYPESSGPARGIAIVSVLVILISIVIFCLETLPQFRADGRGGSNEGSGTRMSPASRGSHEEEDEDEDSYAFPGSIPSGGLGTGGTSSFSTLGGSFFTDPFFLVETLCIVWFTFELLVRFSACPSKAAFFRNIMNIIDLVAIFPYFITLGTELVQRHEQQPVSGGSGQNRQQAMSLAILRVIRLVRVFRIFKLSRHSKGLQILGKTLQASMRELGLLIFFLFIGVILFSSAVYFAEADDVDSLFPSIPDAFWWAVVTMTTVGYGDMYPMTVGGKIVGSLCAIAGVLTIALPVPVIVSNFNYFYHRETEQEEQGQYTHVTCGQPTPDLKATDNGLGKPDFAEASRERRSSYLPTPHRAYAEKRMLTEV
T3 sequence (P17659 whole entry): as above
rat KV1.2 (rat), sequence (P63142 whole entry): as the sequence (P63142 whole entry) above
T6 sequence (P19024 whole entry): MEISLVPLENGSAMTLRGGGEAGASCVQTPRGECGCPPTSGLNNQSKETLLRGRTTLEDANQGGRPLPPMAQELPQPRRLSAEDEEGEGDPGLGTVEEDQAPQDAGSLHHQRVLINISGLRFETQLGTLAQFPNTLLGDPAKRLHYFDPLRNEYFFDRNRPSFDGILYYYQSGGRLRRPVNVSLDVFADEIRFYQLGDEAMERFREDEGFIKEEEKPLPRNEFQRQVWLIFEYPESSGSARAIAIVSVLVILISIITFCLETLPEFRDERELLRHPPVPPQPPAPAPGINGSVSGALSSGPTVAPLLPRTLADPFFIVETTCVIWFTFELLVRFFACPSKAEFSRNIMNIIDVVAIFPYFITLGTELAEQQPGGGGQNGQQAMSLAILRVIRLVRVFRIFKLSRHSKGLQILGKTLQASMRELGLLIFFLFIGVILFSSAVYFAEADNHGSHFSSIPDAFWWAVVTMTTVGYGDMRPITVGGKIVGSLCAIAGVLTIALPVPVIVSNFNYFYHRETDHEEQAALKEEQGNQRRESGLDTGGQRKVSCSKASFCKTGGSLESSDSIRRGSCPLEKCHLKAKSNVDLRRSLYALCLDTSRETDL
T5 sequence (P15385 whole entry): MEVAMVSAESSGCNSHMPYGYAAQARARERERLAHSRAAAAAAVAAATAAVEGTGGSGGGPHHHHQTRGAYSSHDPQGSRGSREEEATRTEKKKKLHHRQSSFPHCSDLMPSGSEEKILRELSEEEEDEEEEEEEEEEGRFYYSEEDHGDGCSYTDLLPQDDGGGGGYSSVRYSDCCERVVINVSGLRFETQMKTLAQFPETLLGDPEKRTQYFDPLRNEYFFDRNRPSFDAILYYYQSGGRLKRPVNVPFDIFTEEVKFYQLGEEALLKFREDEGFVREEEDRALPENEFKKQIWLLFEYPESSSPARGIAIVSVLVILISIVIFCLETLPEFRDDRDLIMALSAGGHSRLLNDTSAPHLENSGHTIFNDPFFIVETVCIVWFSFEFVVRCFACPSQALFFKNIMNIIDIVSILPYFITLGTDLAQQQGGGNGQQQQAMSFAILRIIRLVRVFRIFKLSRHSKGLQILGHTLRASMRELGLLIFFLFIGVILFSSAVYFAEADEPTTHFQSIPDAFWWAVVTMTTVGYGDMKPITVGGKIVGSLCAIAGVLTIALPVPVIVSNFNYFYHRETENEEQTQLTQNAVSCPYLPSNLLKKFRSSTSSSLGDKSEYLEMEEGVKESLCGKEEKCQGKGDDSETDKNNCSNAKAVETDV

On to `CC[C@H](C)[C@H](NC(=O)CNC(=O)[C@@H](N)C(C)C)C(=O)N[C@@H](CC(N)=O)C(=O)N[C@H](C(=O)N[C@@H](CCCCN)C(=O)N[C@H]1CSSC[C@@H]2NC(=O)[C@H](CCCCN)NC(=O)CNC(=O)[C@H](Cc3ccccc3)NC(=O)[C@H](CCCNC(=N)N)NC(=O)[C@H](CCSC)NC(=O)CNC(=O)[C@H](C)NC(=O)[C@H](CC(=O)O)NC(=O)[C@H](CCCCN)NC(=O)[C@@H]3CSSC[C@@H](C(=O)N[C@H](C(=O)N4CCC[C@H]4C(=O)N[C@@H](CCCCN)C(N)=O)[C@@H](C)O)NC(=O)[C@H](CC(=O)O)NC(=O)[C@H](CSSC[C@H](NC(=O)[C@H](CCC(N)=O)NC(=O)CNC(=O)[C@H](CO)NC(=O)[C@H](Cc4c[nH]cn4)NC(=O)[C@H](CCCCN)NC1=O)C(=O)N[C@@H](CC(C)C)C(=O)N[C@@H](CCCCN)C(=O)N1CCC[C@H]1C(=O)N3)NC(=O)[C@H](CCCCN)NC(=O)CNC(=O)[C@H](CC(N)=O)NC(=O)[C@H]([C@@H](C)CC)NC2=O)C(C)C` [MeKTx13-3] (H-VGINVKCKHSGQCLKPCKDAGMRFGKCINGKCDCTPK-NH2; disulfide 7-27, 13-32, 17-34; N-terminus and C-terminus assumed), for which the Hill coefficient was 0.9 ± 0.1 on KV1.1 (KV1.1 concentration–response, mean ± SEM, n ≥ 3); 1.3 ± 0.3 on KV1.2 (KV1.2 concentration–response, mean ± SEM, n ≥ 3); 1.0 ± 0.1 on KV1.6 (KV1.6 concentration–response); 0.8 ± 0.2 on KV1.3 [1] (KV1.3 concentration–response, mean ± SEM, n ≥ 3). Also, on KV1.3 [1], the inhibition at 0.01 µM is approximately 50%.

Turning to `CC[C@H](C)[C@H](NC(=O)CNC(=O)[C@@H](N)C(C)C)C(=O)N[C@@H](CC(N)=O)C(=O)N[C@H](C(=O)N[C@@H](CCCCN)C(=O)N[C@H]1CSSC[C@@H]2NC(=O)[C@H](CCCCN)NC(=O)CNC(=O)[C@H](Cc3ccccc3)NC(=O)[C@H](CCCNC(=N)N)NC(=O)[C@H](CCSC)NC(=O)CNC(=O)[C@H](C)NC(=O)[C@H](CC(=O)O)NC(=O)[C@H](C)NC(=O)[C@@H]3CSSC[C@@H](C(=O)N[C@H](C(=O)N4CCC[C@H]4C(=O)N[C@@H](CCCCN)C(=O)O)[C@@H](C)O)NC(=O)[C@H](CCCNC(=N)N)NC(=O)[C@H](CSSC[C@H](NC(=O)[C@H](C)NC(=O)CNC(=O)[C@H](CO)NC(=O)[C@H](Cc4c[nH]cn4)NC(=O)[C@H](CCCCN)NC1=O)C(=O)N[C@@H](CC(C)C)C(=O)N[C@@H](C)C(=O)N1CCC[C@H]1C(=O)N3)NC(=O)[C@H](CCCCN)NC(=O)CNC(=O)[C@H](CC(N)=O)NC(=O)[C@H]([C@@H](C)CC)NC2=O)C(C)C` [MeKTx13-3_AAAR] (H-VGINVKCKHSGACLAPCADAGMRFGKCINGKCRCTPK-OH; disulfide 7-27, 13-32, 17-34), the inhibition at 0.01 µM on KV1.1 (10 nM, KV1.1, Xenopus oocytes, read-out: inhibition of potassium current) is approximately 15%; at KV1.2 (10 nM, KV1.2, Xenopus oocytes, read-out: inhibition of potassium current), approximately 5%; at KV1.3 [1] it was approximately 50%. The IC50 is 541 ± 48.6 nM against KV1.1 (mean ± SEM, n ≥ 3); 208 ± 15.2 nM against KV1.2 (rKV1.2, Xenopus oocytes, two-electrode voltage clamp, ND96 pH 7.4, 18–22°C, 0 mV from −90 mV, mean ± SEM, n ≥ 3); more than 1000 nM on KV1.4; more than 1000 nM at KV1.5; 1520 ± 183 nM against KV1.6 (rKV1.6, Xenopus oocytes, two-electrode voltage clamp, ND96 pH 7.4, 18–22°C, 0 mV from −90 mV); 9.1 ± 0.4 nM against KV1.3 [1] (hKV1.3, Xenopus oocytes, two-electrode voltage clamp, ND96 pH 7.4, 18–22°C, 0 mV from −90 mV, mean ± SEM, n ≥ 3). Also, the KV1.1/KV1.3 selectivity factor at KV1.3 [1] (ratio of IC50 values KV1.1/KV1.3) is 60.

Turning to `CC[C@H](C)[C@H](NC(=O)CNC(=O)[C@@H](N)C(C)C)C(=O)N[C@@H](CC(N)=O)C(=O)N[C@H](C(=O)N[C@@H](CCCCN)C(=O)N[C@H]1CSSC[C@@H]2NC(=O)[C@H](CCCCN)NC(=O)CNC(=O)[C@H](Cc3ccccc3)NC(=O)[C@H](CCCNC(=N)N)NC(=O)[C@H](CCSC)NC(=O)CNC(=O)[C@H](C)NC(=O)[C@H](CC(=O)O)NC(=O)[C@H](CCCCN)NC(=O)[C@@H]3CSSC[C@@H](C(=O)N[C@H](C(=O)N4CCC[C@H]4C(=O)N[C@@H](CCCCN)C(=O)O)[C@@H](C)O)NC(=O)[C@H](CC(=O)O)NC(=O)[C@H](CSSC[C@H](NC(=O)[C@H](CCC(N)=O)NC(=O)CNC(=O)[C@H](CO)NC(=O)[C@H](Cc4c[nH]cn4)NC(=O)[C@H](CCCCN)NC1=O)C(=O)N[C@@H](CC(C)C)C(=O)N[C@@H](CCCCN)C(=O)N1CCC[C@H]1C(=O)N3)NC(=O)[C@H](CCCCN)NC(=O)CNC(=O)[C@H](CC(N)=O)NC(=O)[C@H]([C@@H](C)CC)NC2=O)C(C)C` [Recombinant MeKTx13-3] (H-VGINVKCKHSGQCLKPCKDAGMRFGKCINGKCDCTPK-OH; disulfide 7-27, 13-32, 17-34), the midpoint of inhibition on KV1.1 (mean ± SEM, n ≥ 3), the IC50, lay at 6.7 ± 2.7 nM. For the same compound, at KV1.3 [1], the inhibition at 0.01 µM was approximately 50%.

As for “MeKTx13-3, natural toxin from Mesobuthus eupeus venom (peptide)”, the IC50 of inhibition of potassium current, two-electrode voltage clamp, X. laevis oocytes worked out at 8.9 nM with KV1.3 [2], 1.9 nM with rat KV1.1 (rat) [3], 106 nM with rat KV1.2 (rat) [4] and 63.4 nM in the assay with rat KV1.6 (rat) [5]. In the assay with rat KV1.1 (rat) [6], this compound showed a percent of potassium current blocked at 10 nM toxin, two-electrode voltage clamp, X. laevis oocytes of more than 95%.

With Recombinant MeKTx13-3 (peptide), the IC50 of inhibition of potassium current, two-electrode voltage clamp, X. laevis oocytes with rat KV1.1 (rat) [7] was 6.7 nM. Also, the percent of potassium current blocked at 10 nM toxin, two-electrode voltage clamp, X. laevis oocytes with KV1.3 [8] was 50%; with rat KV1.1 (rat) [6] it was more than 95%; with rat KV1.2 (rat) [9], 25%; in the assay with rat KV1.6 (rat) [10], 15%.
